Legend:
Set-up in all cases: purchased Milipore (Millipore)
[1] = biological target: T1, Human adrenergic α2B receptor (Homo sapiens, UniProt P18089); test: Radioligand binding, adrenergic α2B (Protocol Group B); settings: Protocol Group B; for Percentage inhibition of ligand binding, Adrenergic α2B (30 nM) / inhibition at 0.03 µM: 30 nM compound; for Percentage inhibition of ligand binding, Adrenergic α2B (30 nM): 0.03 µM; for Percentage inhibition of ligand binding, Adrenergic α2B (0.1 μM) / inhibition at 0.1 µM: 0.1 μM compound; for inhibition at 0.03 µM: read-out: Percentage inhibition of ligand binding, Adrenergic α2B (30 nM); for inhibition at 0.1 µM: read-out: Percentage inhibition of ligand binding, Adrenergic α2B (0.1 μM)
T1 sequence (P18089 1-450): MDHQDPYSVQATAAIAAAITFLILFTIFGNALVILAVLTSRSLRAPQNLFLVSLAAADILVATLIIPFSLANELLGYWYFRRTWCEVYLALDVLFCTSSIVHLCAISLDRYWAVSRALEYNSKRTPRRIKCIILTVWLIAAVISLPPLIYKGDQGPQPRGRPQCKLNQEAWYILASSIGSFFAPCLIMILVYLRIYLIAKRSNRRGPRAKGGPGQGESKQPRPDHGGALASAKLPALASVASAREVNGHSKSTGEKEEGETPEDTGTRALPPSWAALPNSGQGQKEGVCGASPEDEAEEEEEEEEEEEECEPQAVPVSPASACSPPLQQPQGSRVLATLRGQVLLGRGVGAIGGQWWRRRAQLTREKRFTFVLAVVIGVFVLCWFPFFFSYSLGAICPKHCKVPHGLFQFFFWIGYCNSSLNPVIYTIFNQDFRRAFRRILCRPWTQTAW
Procedure, shortened: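 Recombinant human α2B receptor membranes incubated with compounds in 50 mM Tris-HCl pH 7.4, 5 mM MgCl2, 1 mM CaCl2, 0.2% BSA, 1% DMSO vehicle. Non-specific binding defined with 10 μM rauwolscine. Values are percent inhibition of specific binding or estimated Ki.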

[2] = biological target: T2, Human adrenergic α2A receptor (Homo sapiens, UniProt P08913); test: Radioligand binding, adrenergic α2A (Protocol Group B); settings: Protocol Group B
T2 sequence (P08913 1-465): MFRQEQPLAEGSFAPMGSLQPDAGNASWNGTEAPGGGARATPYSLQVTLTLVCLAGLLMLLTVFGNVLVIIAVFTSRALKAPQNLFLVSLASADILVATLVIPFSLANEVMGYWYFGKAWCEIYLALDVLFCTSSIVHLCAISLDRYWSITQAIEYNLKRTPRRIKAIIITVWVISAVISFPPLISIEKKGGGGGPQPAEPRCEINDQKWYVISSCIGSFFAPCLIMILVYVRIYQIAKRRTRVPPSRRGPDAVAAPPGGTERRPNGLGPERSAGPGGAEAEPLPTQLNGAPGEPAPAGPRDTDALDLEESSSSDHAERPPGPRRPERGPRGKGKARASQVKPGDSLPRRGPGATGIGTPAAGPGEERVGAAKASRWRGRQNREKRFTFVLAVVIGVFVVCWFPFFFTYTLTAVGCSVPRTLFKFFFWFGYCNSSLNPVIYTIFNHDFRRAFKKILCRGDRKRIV
Procedure, shortened: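 Membranes from recombinant cells expressing the receptor, in 50 mM Tris-HCl pH 7.4 with 5 mM MgCl2, 1 mM CaCl2, 0.2% BSA; compounds incubated with 2 nM [^3H]MK-912 for 60 min at 25° C. Nonspecific binding defined by 10 μM rauwolscine; filtration, counting; percent inhibition of specific binding, or estimated Ki.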

[3] = biological target: T3, Human adrenergic α1B receptor (Homo sapiens, UniProt P35368); test: Radioligand binding, adrenergic α1B (Protocol Group B); settings: Protocol Group B; for Percentage inhibition of ligand binding, Adrenergic α1B (0.3 μM) / inhibition at 0.3 µM: 0.3 μM compound; for inhibition at 0.3 µM: read-out: Percentage inhibition of ligand binding, Adrenergic α1B (0.3 μM)
T3 sequence (P35368 1-520): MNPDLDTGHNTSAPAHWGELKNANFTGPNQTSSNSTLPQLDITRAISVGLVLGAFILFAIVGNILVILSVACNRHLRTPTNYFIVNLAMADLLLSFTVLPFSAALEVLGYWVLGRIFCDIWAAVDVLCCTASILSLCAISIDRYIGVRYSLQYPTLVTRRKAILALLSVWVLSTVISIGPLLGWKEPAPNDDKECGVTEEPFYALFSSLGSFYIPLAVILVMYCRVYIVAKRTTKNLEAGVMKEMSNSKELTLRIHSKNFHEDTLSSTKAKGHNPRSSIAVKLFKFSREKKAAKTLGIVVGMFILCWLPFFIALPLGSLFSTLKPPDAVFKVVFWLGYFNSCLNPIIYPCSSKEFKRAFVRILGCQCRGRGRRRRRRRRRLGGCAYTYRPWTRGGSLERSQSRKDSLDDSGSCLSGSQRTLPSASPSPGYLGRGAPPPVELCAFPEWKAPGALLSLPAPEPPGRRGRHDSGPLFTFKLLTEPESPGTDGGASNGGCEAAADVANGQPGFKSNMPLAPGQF
Procedure, shortened: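 Recombinant human α1B membranes incubated with test compound and 0.3 nM [3H]prazosin, 60 min at 25 °C, in 50 mM Tris-HCl pH 7.4, 10 mM MgCl2, 1 mM EDTA; nonspecific binding with 10 μM prazosin. Filter-bound radioactivity counted; values are % inhibition of specific binding or estimated Ki.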

| Compound | Percentage inhibition of ligand binding, Adrenergic α2B (10 nM) ([1]; 10 nM compound, 0.01 µM) | Percentage inhibition of ligand binding, Adrenergic α2B (30 nM) [1] | Percentage inhibition of ligand binding, Adrenergic α2B (0.1 μM) [1] | Percentage inhibition of ligand binding, Adrenergic α2A (0.1 μM) ([2]; 0.1 μM compound) | Percentage inhibition of ligand binding, Adrenergic α2A (0.3 μM) ([2]; 0.3 μM compound) | Percentage inhibition of ligand binding, Adrenergic α1B (0.1 μM) ([3]; 0.1 μM compound, 0.1 µM) | Percentage inhibition of ligand binding, Adrenergic α1B (0.3 μM) [3] | Percentage inhibition of ligand binding, Adrenergic α1B (0.1 μM) ([3]; 0.1 μM compound) | Percentage inhibition of ligand binding, Adrenergic α2B (10 nM) ([1]; 10 nM compound) | inhibition at 0.01 µM ([1]; 10 nM compound, read-out: Percentage inhibition of ligand binding, Adrenergic α2B (10 nM)) | inhibition at 0.03 µM [1] | inhibition at 0.1 µM ([2]; 0.1 μM compound, read-out: Percentage inhibition of ligand binding, Adrenergic α2A (0.1 μM)) | inhibition at 0.3 µM ([2]; 0.3 μM compound, read-out: Percentage inhibition of ligand binding, Adrenergic α2A (0.3 μM)) | inhibition at 0.1 µM ([3]; 0.1 μM compound, read-out: Percentage inhibition of ligand binding, Adrenergic α1B (0.1 μM)) | inhibition at 0.3 µM [3] | inhibition at 0.1 µM [1] |
| --- | --- | --- | --- | --- | --- | --- | --- | --- | --- | --- | --- | --- | --- | --- | --- | --- |
| OC(Cn1c2c(c3cc(F)ccc31)C1CCCN1CC2)c1ccncc1 (centres unmarked) [compound 18, 2-(10-fluoro-2,3,5,6-tetrahydro-1H-indolizino[7,8-b]indol-7 (11cH)-yl)-1-(pyridin-4-yl)ethanol] | 54% | 81% | 95% | 12% | 38% | 20% | 51% | – | – | – | – | – | – | – | – | – |
| Cc1cc(F)cc2c3c(n(CC(O)c4ccncc4)c12)CCN1CCCC31 (single isomer, unassigned) [136c] | – | 9% | – | 3% | – | 0% | – | – | – | – | – | – | – | – | – | – |
| OC(Cn1c2c(c3cc(F)ccc31)C1CCCN1CC2)c1ccncc1 (single isomer, unassigned) [18c] | 17% | 13% | 22% | 7% | 0% | 5% | 6% | – | – | – | – | – | – | – | – | – |
| OC(Cn1c2c(c3cc(F)ccc31)C1CCCN1CC2)c1ccncc1 (single isomer, unassigned) [18a] | 41% | 58% | 80% | −7% | 38% | 20% | 55% | – | – | – | – | – | – | – | – | – |
| CC(O)(Cn1c2c(c3cc(Cl)cc(F)c31)CN1CCCC1C2)c1cccnc1 (single isomer, unassigned) [63b] | −6% | −3% | 22% | 0% | 13% | −1% | 1% | – | – | – | – | – | – | – | – | – |
| Cc1ccc2c(c1)c1c(n2CC(C)(O)c2cccnc2)CC2CCCN2C1 (centres unmarked) [38d] | 1% | 14% | 22% | −4% | 3% | 1% | 12% | – | – | – | – | – | – | – | – | – |
| CN1CCc2c(c3cc(CCO)ccc3n2CC(O)c2ccncc2)C1 (single isomer, unassigned) [140a] | – | −12% | – | −5% | – | −9% | – | – | – | – | – | – | – | – | – | – |
| Cc1ccc2c(c1)c1c(n2CC(C)(O)c2cnc3ccccc3c2)CCN(C)C1 (single isomer, unassigned) [32b] | 0% | 14% | – | −5% | 9% | – | 13% | −1% | – | – | – | – | – | – | – | – |
| CC(O)(Cn1c2c(c3cc(Cl)cc(F)c31)C1CCCN1CC2)c1ccncc1 (single isomer, unassigned) [52c] | – | 11% | 10% | 7% | 12% | −6% | 0% | – | 9% | – | – | – | – | – | – | – |
| CC(O)(Cn1c2c(c3cc(Cl)cc(F)c31)CN1CCCC1C2)c1ccncc1 (single isomer, unassigned) [86d] | 13% | 28% | – | 7% | 11% | 3% | 13% | – | – | – | – | – | – | – | – | – |
| Cc1ccc2c(c1)c1c(n2CC(O)c2ccc(C(=O)N3CCCC3)nc2)CCN(C)C1 (centres unmarked) [compound 96, [5-[2-(2,8-dimethyl-3,4-dihydro-1H-pyrido[4,3-b]indol-5-yl)-1-hydroxy-ethyl]-2-pyridyl]-pyrrolidin-1-yl-methanone] | – | – | – | – | – | – | – | – | – | 1% | 21% | -7% | -9% | -1% | 9% | – |
| CC(O)(Cn1c2c(c3cc(C(F)(F)F)ccc31)C1CCCN1CC2)c1cccnc1 (single isomer, unassigned) [64a] | 73% | 91% | – | 37% | 61% | 18% | – | – | – | – | – | – | – | – | 47% | 96% |
| OC(Cn1c2c(c3cc(Cl)cc(F)c31)C1CCCN1CC2)c1ccncc1 (single isomer, unassigned) [135c] | 4% | – | – | 12% | 18% | 1% | – | – | – | – | 10% | – | – | – | 12% | – |
| OC(Cn1c2c(c3cc(F)cc(F)c31)C1CCCN1CC2)c1ccncc1 (single isomer, unassigned) [144c] | – | −12% | – | 1% | – | −2% | – | – | – | – | – | – | – | – | – | – |
| CN1CCc2c(c3cc(C(F)(F)F)ccc3n2CC(OC2CCCC2)c2ccncc2)C1 (single isomer, unassigned) [60a] | 23% | – | – | 26% | 50% | 12% | 40% | – | – | – | 47% | – | – | – | – | 72% |
